Laboratory results reported in PMC9663686, “Proline, hydroxyproline, and pyrrolidone carboxylic acid derivatives as highly efficient but reversible transdermal permeation enhancers” (Scientific Reports, 2022).
Marks after values point to notes of the source that are not given here.

How the values were obtained:
[1] = test system: human skin; test: Transepidermal water loss (TEWL) of human skin in vitro, reversibility; conditions: for TEWL 1 h after the sample had been removed / TEWL 4 h after the sample had been removed / TEWL 8 h after the sample had been removed / TEWL 12 h after the sample had been removed / TEWL 24 h after the sample had been removed: 24-h application of 1% enhancer (1% Azone, 5% SDS) in 60% PG; for TEWL 1 h after the sample had been removed / TEWL 4 h after the sample had been removed / TEWL 8 h after the sample had been removed / TEWL 12 h after the sample had been removed / TEWL 24 h after the sample had been removed / TEWL before sample application (baseline): mean ± SEM; for TEWL values after 24-h treatment (range over the three enhancers): 1% in 60% PG, baseline around 27 g/m^2/h; for time after enhancer removal for TEWL to decline to values similar to baseline: after 24-h application of 1% enhancer in 60% PG
Text: (§1) We further investigated the direct effects of the selected enhancers on the skin barrier assessed by TEWL and the electrical impedance of human skin in vitro. TEWL is a method commonly used in dermatology[38] to study, for example, the irritant potential of chemicals, skin barrier recovery, or effect of topical formulations, and permeation enhancers[17],[21],[41]–[44]. Electrical impedance measures the opposition of the skin to alternating electrical current and is inversely proportional to the flux of ions. Thus, increased TEWL or decreased impedance indicates a barrier impairment[45],[46]. Electrical impedance or conductance measurements have been used to screen new enhancers or assess the irritation potential of compounds[13],[15],[17],[21],[32],[44],[47]–[50]. Both TEWL and impedance can distinguish between reversible and irreversible effects of enhancers on skin permeability[17],[21],[40],[44],[51].
(§2) Human skin was mounted in Franz diffusion cells in the same way as for the permeation studies. After 1-h equilibration, basal TEWL and impedance values were recorded. Then, 1% enhancer in 60% PG, 60% PG as a negative control, 1% Azone in 60% PG, or 5% SDS in 60% PG as positive (irreversible) controls was applied on the skin (100 µl/cm^2) for 24 h. The residual sample was washed with PBS and gently blotted dry. At 1, 4, 8, 12, and 24 h after sample removal, TEWL, and impedance values were recorded. TEWL was measured using AquaFlux AF 200 (Biox Systems Ltd, London, UK), employing the condenser-chamber measurement method at 26 ± 1.0 °C and 43 ± 3% relative air humidity. Electrical impedance was measured by LCR meter 4080 (Conrad electronic, Hirschau, Germany, measuring range 20 Ω–10 MΩ, error at kΩ values < 0.5%) operated in parallel mode with an alternating frequency of 120 Hz, which was also used in our previous work[21],[44].
(§3) Samples were removed from the skin after 24 h, and TEWL and impedance values were recorded in predetermined time intervals (1, 4, 8, 12, and 24 h after sample removal). Data are presented as the means ± SEM; n ≥ 3. * statistically significant difference compared to the baseline value before the sample application at p < 0.05. ^+ statistically significant compared to the value 1 h after the sample removal at p < 0.05.^ ≠ statistically significant compared to the control (60% PG without enhancer) at the same time point, at p < 0.05.

[2] = test system: HaCaT spontaneously immortalized human keratinocytes; test: Neutral red (NR) uptake cell viability assay, HaCaT; assay type: cell-based; conditions: 48-h incubation, mean ± SEM, read-out: IC50, HaCaT cells, NR assay
Text: Next, the in vitro toxicities of the most promising enhancers Pro3 and Pro4, along with the parent Pro2, on spontaneously immortalized human keratinocytes (HaCaT) and Swiss albino mouse embryonic fibroblasts (3T3) were studied (Fig. 3). […] The cellular toxicities were further probed using the 3-(4,5-dimethylthiazol-2-yl)-2,5-diphenyltetrazolium bromide (MTT) uptake assay, based on the transformation of yellow MTT into purple formazan by mitochondrial reductases of living cells. The MTT assay also yielded toxicity values in tens of µM with trends to higher toxicity with a longer acyl chain length (thus also higher lipophilicity) of enhancers (Fig. 3).
Cell viability was determined via 3-(4,5-dimethylthiazol-2-yl)-2,5-diphenyltetrazolium bromide (MTT) and neutral red (NR) uptake assays after 48-h incubation with the enhancers (see Supplementary data for details).
Both cell lines were cultivated in Dulbecco’s modified Eagle’s medium (DMEM, Lonza, Basel, Switzerland) supplemented with 10% heat-inactivated fetal bovine serum (Merck, Darmstadt, Germany), 10 mM HEPES buffer (Merck, Darmstadt, Germany), and 1% penicillin/streptomycin solution (Lonza, Basel, Switzerland) in 75-cm^2 tissue culture flasks (TPP, Trasadingen, Switzerland) at 37°C in a humidified atmosphere of 5% CO2. Subconfluent cells were sub-cultured every 3-4 days.
For toxicity studies, the stock-solutions of studied compounds were prepared in dimethyl sulfoxide (DMSO). These stock samples were diluted to the required concentration by the cell culture medium immediately before adding them onto the cells. The amount of DMSO applied to the cells was kept under its intrinsic measurable toxicity limit (below 1 vol.%). […]
Another approach used for the toxicity assessment was the neutral red (NR) uptake assay. […] The plates were shaken at rt for 30 min, and the optical density of the soluble NR was measured at λ = 540 nm using a Tecan Infinite 200 M plate reader.
The viability of each experimental group was expressed as the percentage of the untreated controls incubated under the same conditions (100%).

[3] = test system: human skin; test: Electrical impedance of human skin in vitro, reversibility; conditions: for impedance 1 h after the sample had been removed / impedance 4 h after the sample had been removed / impedance 8 h after the sample had been removed / impedance 12 h after the sample had been removed / impedance 24 h after the sample had been removed: 24-h application of 1% enhancer (1% Azone, 5% SDS) in 60% PG; for impedance 1 h after the sample had been removed / impedance 4 h after the sample had been removed / impedance 8 h after the sample had been removed / impedance 12 h after the sample had been removed / impedance 24 h after the sample had been removed / impedance before sample application (baseline): mean ± SEM; for fold decrease of skin impedance compared to baseline (range over enhancers and control): 24 h treatment, baseline 25–29 kΩ × cm^2; for recovery of skin impedance after sample removal: after 24-h application, followed 24 h after removal
Text: as §1, §2, §3

| SMILES | TEWL 1 h after the sample had been removed [1] | TEWL 4 h after the sample had been removed [1] | TEWL 8 h after the sample had been removed [1] | TEWL 12 h after the sample had been removed [1] | TEWL 24 h after the sample had been removed [1] | TEWL values after 24-h treatment (range over the three enhancers) [1] | reversibility of TEWL increase ([1]; after 24-h application, followed 24 h after removal) | TEWL before sample application (baseline) [1] [g/m^2/h] | IC50 [2] [µM] | impedance 1 h after the sample had been removed [3] | impedance 4 h after the sample had been removed [3] | impedance 8 h after the sample had been removed [3] | impedance 12 h after the sample had been removed [3] | impedance 24 h after the sample had been removed [3] | fold decrease of skin impedance compared to baseline (range over enhancers and control) [3] | recovery of skin impedance after sample removal [3] | impedance before sample application (baseline) [3] [kΩ×cm^2] | time after enhancer removal for TEWL to decline to values similar to baseline [1] [h] |
| --- | --- | --- | --- | --- | --- | --- | --- | --- | --- | --- | --- | --- | --- | --- | --- | --- | --- | --- |
| CCCCCCCCCCCCOC(=O)C1CCCN1C(C)=O (stereo not drawn) [Pro2, N-acetyl proline dodecyl ester] | 65.4 ± 1.5*^≠ g/m^2/h | 56.0 ± 1.3*^≠ g/m^2/h | 45.9 ± 1.5*^≠+ g/m^2/h | 42.5 ± 2.5*^≠+ g/m^2/h | 41.8 ± 1.0*^≠+ g/m^2/h | 50–65 g/m^2/h | only partly reversible within 24 h | 25.0 ± 3.0 | 98.1 ± 4.49 | 2.8 ± 0.1* kΩ×cm^2 | 6.0 ± 1.1*^≠ kΩ×cm^2 | 8.1 ± 1.7*^≠ kΩ×cm^2 | 8.6 ± 2.0*^≠ kΩ×cm^2 | 9.4 ± 2.6*^≠+ kΩ×cm^2 | 5–21 times | recovered incompletely | 25.2 ± 2.1 |  |
| CCCCCCCCCCCCOC(=O)C1CCCN1C(=O)CC (stereo not drawn) [Pro3] | 59.4 ± 5.6*^≠ g/m^2/h | 47.1 ± 1.7*^≠+ g/m^2/h | 36.5 ± 1.1^+ g/m^2/h | 30.2 ± 2.2^+ g/m^2/h | 27.4 ± 2.2^+ g/m^2/h | 50–65 g/m^2/h |  | 27.5 ± 6.3 | 74.4 ± 1.75 | 1.4 ± 0.8* kΩ×cm^2 | 7.9 ± 0.4*^≠+ kΩ×cm^2 | 13.1 ± 0.7*^≠+ kΩ×cm^2 | 15.8 ± 1.0*^≠+ kΩ×cm^2 | 18.6 ± 0.9*^≠+ kΩ×cm^2 | 5–21 times | recovered incompletely | 28.9 ± 1.7 | ≤ 8 |
| CCCCCCCCCCCCOC(=O)C1CCCN1C(=O)CCC (stereo not drawn) [Pro4] | 49.9 ± 5.2*^≠ g/m^2/h | 39.4 ± 2.5*^+ g/m^2/h | 30.5 ± 1.3^+ g/m^2/h | 26.3 ± 1.8^+ g/m^2/h | 25.0 ± 2.8^+ g/m^2/h | 50–65 g/m^2/h |  | 27.3 ± 4.1 | 54.6 ± 1.11 | 3.8 ± 0.8* kΩ×cm^2 | 11.5 ± 1.7*^+ kΩ×cm^2 | 18.3 ± 2.5*^+ kΩ×cm^2 | 21.2 ± 2.5*^+ kΩ×cm^2 | 23.8 ± 2.9^+ kΩ×cm^2 | 5–21 times | recovered to values similar to baseline within 24 h | 28.9 ± 2.6 | ≤ 8 |
